Columns and labels:
S. pneumoniae D39V [1] = assay: fitness (endpoint OD595 vs no drug) (fraction); higher = more growth
Procedure, shortened: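 Cultures at OD595 0.01 were dispensed into 384-well plates in TSB, LB Lennox or CY and incubated at 37 °C. Every 30 min for 14 h, OD595 was read and corrected by the first reading. Fitness is the optical density at entry into stationary phase relative to the robust mean of no-drug control wells, capped at 1.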

B. subtilis 168 = assay: Bliss interaction score (quartile over a dose matrix) (fitness difference); higher = more antagonism (negative = synergy)
Procedure, shortened: (§1)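 Combination data were used to infer fitness under each single drug. Fitness is the OD595 at entry into stationary phase divided by the robust mean of the plate's no-drug wells, with a cap of 1. The Bliss score is the observed minus the expected product fitness, summarised by quartiles over technical, biological and donor/recipient replicates.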

S. aureus DSM 20231 = assay: as above
Procedure, shortened: as §1

S. aureus Newman = assay: as above
Procedure, shortened: as §1

S. pneumoniae D39V [2] = assay: as above
Procedure, shortened: as §1
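Wherever Bliss interaction score (quartile over a dose matrix) is given: first quartile when negative (synergy) and third quartile when positive (antagonism).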

Work on `O=C(O)c1cn(C2CC2)c2cc(N3CCNCC3)c(F)cc2c1=O` [Ciprofloxacin] + C[C@@H](O)[C@H]1C(=O)N2C(C(=O)O)=C(SCCNC=N)C[C@H]12 [Imipenem] yielded a fitness (S. pneumoniae D39V [1]; first compound 0.125 µg/mL, partner 0.005 µg/mL) of 0.956, a fitness (S. pneumoniae D39V [1]; first compound 0.125 µg/mL, partner 0.0065 µg/mL) of 0.96 and a fitness (S. pneumoniae D39V [1]; first compound 0.125 µg/mL, partner 0.01 µg/mL) of 0.959. The fitness (S. pneumoniae D39V [1]; first compound 0.125 µg/mL, partner 0.013 µg/mL) was 0.893, the fitness (S. pneumoniae D39V [1]; first compound 0.125 µg/mL, partner 0.02 µg/mL) was 0.933 and the fitness (S. pneumoniae D39V [1]; first compound 0.125 µg/mL, partner 0.026 µg/mL) was 0.837. For the same molecule, the fitness (S. pneumoniae D39V [1]; first compound 0.25 µg/mL, partner 0.005 µg/mL, one replicate) was 0.835, the fitness (S. pneumoniae D39V [1]; first compound 0.25 µg/mL, partner 0.0065 µg/mL) was 0.878 and the fitness (S. pneumoniae D39V [1]; first compound 0.25 µg/mL, partner 0.01 µg/mL, one replicate) was 0.824. It also gave a fitness (S. pneumoniae D39V [1]; first compound 0.25 µg/mL, partner 0.013 µg/mL) of 0.847, a fitness (S. pneumoniae D39V [1]; first compound 0.25 µg/mL, partner 0.02 µg/mL, one replicate) of 0.881 and a fitness (S. pneumoniae D39V [1]; first compound 0.25 µg/mL, partner 0.026 µg/mL) of 0.774. For the same molecule, the fitness (S. pneumoniae D39V [1]; first compound 0.5 µg/mL, partner 0.0065 µg/mL) was 0.531, the fitness (S. pneumoniae D39V [1]; first compound 0.5 µg/mL, partner 0.013 µg/mL) was 0.583 and the fitness (S. pneumoniae D39V [1]; first compound 0.5 µg/mL, partner 0.026 µg/mL) was 0.529. The Bliss interaction score (B. subtilis 168) was -0.149, the Bliss interaction score (S. aureus DSM 20231) was 0.0301 and the Bliss interaction score (S. aureus Newman) was 0.016. It also gave a Bliss interaction score (S. pneumoniae D39V [2]) of 0.0446.
`O=C(O)c1cn(C2CC2)c2cc(N3CCNCC3)c(F)cc2c1=O` [Ciprofloxacin] + Clc1ccc(COC(Cn2ccnc2)c2ccc(Cl)cc2Cl)c(Cl)c1 [Miconazole] was tested, and the fitness (S. pneumoniae D39V [1]; first compound 0.125 µg/mL, partner 1.073 µg/mL) was 0.987, the fitness (S. pneumoniae D39V [1]; first compound 0.125 µg/mL, partner 1.25 µg/mL) was 0.939 and the fitness (S. pneumoniae D39V [1]; first compound 0.125 µg/mL, partner 2.145 µg/mL) was 0.966. The fitness (S. pneumoniae D39V [1]; first compound 0.125 µg/mL, partner 2.5 µg/mL) was 0.925, the fitness (S. pneumoniae D39V [1]; first compound 0.125 µg/mL, partner 4.29 µg/mL) was 0.926 and the fitness (S. pneumoniae D39V [1]; first compound 0.125 µg/mL, partner 5 µg/mL) was 0.908. For the same molecule, the fitness (S. pneumoniae D39V [1]; first compound 0.25 µg/mL, partner 1.073 µg/mL) was 0.964, the fitness (S. pneumoniae D39V [1]; first compound 0.25 µg/mL, partner 1.25 µg/mL, one replicate) was 0.821 and the fitness (S. pneumoniae D39V [1]; first compound 0.25 µg/mL, partner 2.145 µg/mL) was 0.965. The fitness (S. pneumoniae D39V [1]; first compound 0.25 µg/mL, partner 2.5 µg/mL, one replicate) was 0.697, the fitness (S. pneumoniae D39V [1]; first compound 0.25 µg/mL, partner 4.29 µg/mL) was 0.864 and the fitness (S. pneumoniae D39V [1]; first compound 0.25 µg/mL, partner 5 µg/mL, one replicate) was 0.721. For the same molecule, the fitness (S. pneumoniae D39V [1]; first compound 0.5 µg/mL, partner 1.073 µg/mL) was 0.761, the fitness (S. pneumoniae D39V [1]; first compound 0.5 µg/mL, partner 1.25 µg/mL) was 0.679 and the fitness (S. pneumoniae D39V [1]; first compound 0.5 µg/mL, partner 2.145 µg/mL) was 0.76. For the same molecule, the fitness (S. pneumoniae D39V [1]; first compound 0.5 µg/mL, partner 4.29 µg/mL) was 0.821, the fitness (S. pneumoniae D39V [1]; first compound 0.5 µg/mL, partner 5 µg/mL) was 0.646 and the Bliss interaction score (B. subtilis 168) was -0.0762. The Bliss interaction score (S. aureus DSM 20231) was 0.0295, the Bliss interaction score (S. aureus Newman) was 0.0815 and the Bliss interaction score (S. pneumoniae D39V [2]) was 0.0741.
`O=C(O)c1cn(C2CC2)c2cc(N3CCNCC3)c(F)cc2c1=O` [Ciprofloxacin] + O=C1CN(/N=C/c2ccc([N+](=O)[O-])o2)C(=O)N1 [Nitrofurantoin] was tested, and the fitness (S. pneumoniae D39V [1]; first compound 0.125 µg/mL, partner 1.285 µg/mL) was 0.921, the fitness (S. pneumoniae D39V [1]; first compound 0.125 µg/mL, partner 2 µg/mL) was 0.914 and the fitness (S. pneumoniae D39V [1]; first compound 0.125 µg/mL, partner 2.57 µg/mL) was 0.932. The fitness (S. pneumoniae D39V [1]; first compound 0.125 µg/mL, partner 4 µg/mL) was 0.906, the fitness (S. pneumoniae D39V [1]; first compound 0.125 µg/mL, partner 5.14 µg/mL, one replicate) was 0.877 and the fitness (S. pneumoniae D39V [1]; first compound 0.125 µg/mL, partner 8 µg/mL) was 0.692. The fitness (S. pneumoniae D39V [1]; first compound 0.25 µg/mL, partner 1.285 µg/mL) was 0.895, the fitness (S. pneumoniae D39V [1]; first compound 0.25 µg/mL, partner 2 µg/mL, one replicate) was 0.731 and the fitness (S. pneumoniae D39V [1]; first compound 0.25 µg/mL, partner 2.57 µg/mL) was 0.903. The fitness (S. pneumoniae D39V [1]; first compound 0.25 µg/mL, partner 4 µg/mL, one replicate) was 0.679, the fitness (S. pneumoniae D39V [1]; first compound 0.25 µg/mL, partner 5.14 µg/mL, one replicate) was 0.879 and the fitness (S. pneumoniae D39V [1]; first compound 0.25 µg/mL, partner 8 µg/mL, one replicate) was 0.56. For the same molecule, the fitness (S. pneumoniae D39V [1]; first compound 0.5 µg/mL, partner 1.285 µg/mL) was 0.704, the fitness (S. pneumoniae D39V [1]; first compound 0.5 µg/mL, partner 2.57 µg/mL) was 0.72 and the fitness (S. pneumoniae D39V [1]; first compound 0.5 µg/mL, partner 5.14 µg/mL, one replicate) was 0.627. For the same molecule, the fitness (S. pneumoniae D39V [1]; first compound 0.5 µg/mL, partner 8 µg/mL) was 0.437, the Bliss interaction score (B. subtilis 168) was 0.129 and the Bliss interaction score (S. aureus DSM 20231) was 0.0292. The Bliss interaction score (S. aureus Newman) was -0.0569 and the Bliss interaction score (S. pneumoniae D39V [2]) was 0.106.
In the case of `CC1(C)S[C@@H]2[C@H](NC(=O)Cc3ccccc3)C(=O)N2[C@H]1C(=O)O` [PenicillinG] + CC1=C\[C@@H](O)CC(=O)Cc2nc(co2)C(=O)N2CCC=C2C(=O)O[C@H](C(C)C)[C@H](C)/C=C/C(=O)NC\C=C\1 [Virginiamycin M1], the Bliss interaction score (B. subtilis 168) is reported as 0.0479, the Bliss interaction score (S. aureus DSM 20231) is reported as -0.0526 and the Bliss interaction score (S. aureus Newman) is reported as 0.0409. For the same molecule, the Bliss interaction score (S. pneumoniae D39V [2]) was 0.099.
`CC1(C)S[C@@H]2[C@H](NC(=O)Cc3ccccc3)C(=O)N2[C@H]1C(=O)O` [PenicillinG] + CCCCCCCCCC(=O)N[C@@H]1[C@H]([C@@H]([C@H](O[C@H]1OC2=C3C=C4C=C2OC5=C(C=C(C=C5)[C@H]([C@H]6C(=O)N[C@@H](C7=C(C(=CC(=C7)O)OC8[C@H]([C@H]([C@@H]([C@H](O8)CO)O)O)O)C9=C(C=CC(=C9)[C@H](C(=O)N6)NC(=O)[C@@H]4NC(=O)[C@@H]1C2=CC(=CC(=C2)OC2=C(C=CC(=C2)[C@H](C(=O)N[C@H](CC2=CC(=C(O3)C=C2)Cl)C(=O)N1)N)O)O)O)C(=O)O)O[C@H]1[C@@H]([C@H]([C@@H]([C@H](O1)CO)O)O)NC(=O)C)Cl)CO)O)O [Teicoplanin] gave a Bliss interaction score (B. subtilis 168; main component drawn) of -0.176, a Bliss interaction score (S. aureus DSM 20231; main component drawn) of -0.0396 and a Bliss interaction score (S. aureus Newman; main component drawn) of 0.0744. For the same molecule, the Bliss interaction score (S. pneumoniae D39V [2]; main component drawn) was -0.0521.

— the supplement of paper PMC10627819
